From publication PMC5973995 (Clinical Pharmacokinetics, 2017)
Read-outs that look alike come from different tables or passages of the source.

Assays:
[1] = Distribution coefficient; type: physicochemical; conditions: data on file
[2] = target: T1, CYP1A2 (Homo sapiens, UniProt P05177); test: In-vitro CYP inhibition in pooled human liver microsomes; type: in vitro ADME; conditions: data on file
T1 sequence (P05177 1-516): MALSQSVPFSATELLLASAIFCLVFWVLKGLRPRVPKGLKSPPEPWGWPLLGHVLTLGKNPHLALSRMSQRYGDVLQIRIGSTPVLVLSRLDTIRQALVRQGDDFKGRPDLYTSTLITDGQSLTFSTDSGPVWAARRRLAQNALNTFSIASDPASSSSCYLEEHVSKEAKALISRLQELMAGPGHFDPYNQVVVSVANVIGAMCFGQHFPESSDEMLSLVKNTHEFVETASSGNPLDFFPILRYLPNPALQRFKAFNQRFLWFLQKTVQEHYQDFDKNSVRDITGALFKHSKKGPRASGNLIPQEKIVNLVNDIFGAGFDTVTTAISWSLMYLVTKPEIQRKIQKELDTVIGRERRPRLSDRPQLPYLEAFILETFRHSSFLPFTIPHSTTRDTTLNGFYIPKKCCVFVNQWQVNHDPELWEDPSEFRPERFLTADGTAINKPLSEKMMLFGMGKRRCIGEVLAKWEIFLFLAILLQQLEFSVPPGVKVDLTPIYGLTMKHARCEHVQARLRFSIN

[3] = system: CYP3A4/5; test: as above; type: in vitro ADME; conditions: data on file
[4] = target: CYP2D6 (Homo sapiens, UniProt P10635); test: as above; type: in vitro ADME; conditions: data on file
Chain of CYP2D6 (P10635 whole entry): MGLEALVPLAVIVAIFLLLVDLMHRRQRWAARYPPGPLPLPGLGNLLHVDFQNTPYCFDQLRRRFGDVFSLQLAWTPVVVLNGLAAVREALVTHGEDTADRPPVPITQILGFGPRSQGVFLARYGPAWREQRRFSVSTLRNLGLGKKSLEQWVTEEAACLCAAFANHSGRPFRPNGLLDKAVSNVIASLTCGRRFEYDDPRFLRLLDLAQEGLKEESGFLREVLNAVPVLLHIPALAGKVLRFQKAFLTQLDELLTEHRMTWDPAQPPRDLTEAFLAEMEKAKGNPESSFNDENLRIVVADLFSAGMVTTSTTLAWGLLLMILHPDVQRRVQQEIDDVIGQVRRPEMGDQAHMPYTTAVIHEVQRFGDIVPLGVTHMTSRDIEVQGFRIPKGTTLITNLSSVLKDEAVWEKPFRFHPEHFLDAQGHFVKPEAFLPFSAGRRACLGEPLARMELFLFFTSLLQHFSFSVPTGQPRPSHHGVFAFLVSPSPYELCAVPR

[5] = target: CYP2C19 (Homo sapiens, UniProt P33261); test: as above; type: in vitro ADME
Chain of CYP2C19 (P33261 whole entry): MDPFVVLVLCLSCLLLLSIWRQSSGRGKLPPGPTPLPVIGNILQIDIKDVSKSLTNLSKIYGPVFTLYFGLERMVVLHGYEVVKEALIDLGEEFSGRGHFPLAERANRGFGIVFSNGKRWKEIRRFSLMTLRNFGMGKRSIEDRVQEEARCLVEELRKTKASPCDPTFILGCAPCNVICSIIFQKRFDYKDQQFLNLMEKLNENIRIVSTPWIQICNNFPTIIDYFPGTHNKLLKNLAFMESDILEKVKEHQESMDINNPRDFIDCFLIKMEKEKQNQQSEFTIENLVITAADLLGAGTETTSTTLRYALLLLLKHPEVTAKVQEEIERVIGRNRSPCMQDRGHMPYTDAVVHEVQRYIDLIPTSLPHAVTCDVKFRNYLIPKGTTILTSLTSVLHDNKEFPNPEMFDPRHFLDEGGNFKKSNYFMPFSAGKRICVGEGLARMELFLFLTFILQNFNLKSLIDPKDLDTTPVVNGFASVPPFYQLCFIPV

[6] = target: T2, CYP2C8 (Homo sapiens, UniProt P10632); test: as above; type: in vitro ADME
T2 sequence (P10632 1-490): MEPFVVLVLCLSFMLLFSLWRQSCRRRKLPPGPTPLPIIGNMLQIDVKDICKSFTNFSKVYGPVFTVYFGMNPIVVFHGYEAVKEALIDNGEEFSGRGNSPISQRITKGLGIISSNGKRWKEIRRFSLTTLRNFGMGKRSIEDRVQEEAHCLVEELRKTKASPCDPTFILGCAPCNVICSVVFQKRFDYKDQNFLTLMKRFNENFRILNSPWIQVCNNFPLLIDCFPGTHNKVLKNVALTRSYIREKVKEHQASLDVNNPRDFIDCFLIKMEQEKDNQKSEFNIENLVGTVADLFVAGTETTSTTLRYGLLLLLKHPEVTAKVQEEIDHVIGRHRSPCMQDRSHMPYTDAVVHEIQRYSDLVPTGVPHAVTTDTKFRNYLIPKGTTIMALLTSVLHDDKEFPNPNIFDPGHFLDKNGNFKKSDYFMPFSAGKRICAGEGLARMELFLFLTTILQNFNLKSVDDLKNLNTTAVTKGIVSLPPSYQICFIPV

[7] = once-daily dosing; cited from earlier work
[8] = cited from earlier work
[9] = cited from earlier work; remark: listed apart in the source
[10] = system: plasma protein; conditions: healthy volunteers and hepatic or renal impairment; cited from earlier work
[11] = cited from earlier work; remark: listed apart in the source
[12] = cited from earlier work; remark: listed apart in the source
[13] = cited from earlier work; remark: listed apart in the source
[14] = system: P-glycoprotein (Pgp) transporter; conditions: cited from earlier work
[15] = system: SERT; conditions: Japanese and white male individuals, cited from earlier work
[16] = 10 or 40 mg once daily; ICH E14 definitions; cited from earlier work
[17] = once-daily 10 mg; 21 young individuals; cited from earlier work
[18] = system: 5-HT1A receptor; conditions: in vitro; cited from earlier work
[19] = system: 5-HT3 receptor; conditions: in vitro; cited from earlier work
[20] = system: 5-HT7 receptor; conditions: in vitro; cited from earlier work
[21] = system: 5-HT1B receptor; conditions: in vitro; cited from earlier work
[22] = system: 5-HT transporter (SERT); conditions: in vitro; cited from earlier work
[23] = pooled human liver microsomes, CYP isozyme-specific probe substrates, data on file
[24] = simulation, 20 mg at steady state
[25] = within 360 h, single 50-mg 14C dose
[26] = bupropion 150 mg twice daily with vortioxetine 10 mg once daily
[27] = fluconazole 200 mg once daily with vortioxetine 10 mg
[28] = ketoconazole 400 mg once daily with vortioxetine 10 mg
[29] = rifampin 600 mg daily with vortioxetine 20 mg

With `Br.Cc1ccc(Sc2ccccc2N2CCNCC2)c(C)c1` [vortioxetine, 1-[2-(2,4-dimethyl-phenylsulfanyl)-phenyl]-piperazine, hydrobromide] the “distribution coefficient (octanol/water)” value ([1]; pH 3, 25 °C) was 2.2, the “distribution coefficient (octanol/water)” value ([1]; pH 11, 25 °C) was 4.7 and the “inhibitory in-vitro effect on CYP1A2” value [2] was “no inhibitory in-vitro effect”. The “inhibitory in-vitro effect on CYP3A4/5” value [3] was “no inhibitory in-vitro effect”, the “inhibitory in-vitro effect on CYP2D6” value [4] was “no inhibitory in-vitro effect” and the “ratio of maximum plasma concentration of inhibitor (I) and Ki” value ([5]; CYP2C19, much smaller than) was “smaller than 0.1”. For the same compound, the “inhibitory effect on CYP2C19” value [5, 23] was “inhibitory effect”, the “ratio of maximum plasma concentration of inhibitor (I) and Ki” value ([6]; CYP2C8, much smaller than) was “smaller than 0.1” and the “inhibitory effect on CYP2C8” value [6, 23] was “inhibitory effect”. The “time to steady-state plasma concentrations” value [7] was ≤ 2 weeks, the “estimated CL/F” value ([8]; CYP2D6 EMs) was 34.1 L/h and the “estimated CL/F” value ([8]; CYP2D6 IMs) was 26.6 L/h. For the same compound, the “estimated CL/F” value ([8]; CYP2D6 PMs) was 18.1 L/h, the “estimated CL/F” value ([8]; CYP2D6 UMs) was 52.9 L/h and the “oral clearance, CYP2C19 EMs relative to PMs” value [8] was 1.4 times. For the same compound, the “oral clearance, CYP2D6 EMs higher than PMs” value [8] was “approximately two-fold”, the “exposure in CYP2D6 PMs relative to CYP2D6 EMs” value ([8]; expected) was “twice as high” and the “population mean AUC lower in CYP2D6 UMs than EMs” value ([8]; expected) was 35.5%. The “estimated minimal lag time” value ([8]; oral) was 0.781 h, the mean oral clearance ([8]; phase I population-PK analysis) was 33 L/h and the “AUC(0–24) higher, 75-year-old vs 40-year-old” value [8, 24] was 40%. The “AUC(0–24) lower, 18-year-old vs 40-year-old” value [8, 24] was 15%, the “C max higher, 75-year-old vs 40-year-old” value [8, 24] was 38% and the “C max lower, 18-year-old vs 40-year-old” value [8, 24] was 14%. The “C max and AUC(0–24) higher, 155 cm vs 175 cm person” value ([8]; simulation, 20 mg) was 5%, the “C max and AUC(0–24) lower, 187 cm vs 175 cm person” value ([8]; simulation, 20 mg) was 4% and the “parent drug detected in the feces” value ([9]; single 50-mg 14C dose, feces only) was 1.5%. The “drug concentration in plasma relative to whole blood” value ([9]; single oral dose 50 mg 14C-labeled) was “double”, the “drug-related material recovered in feces” value [9, 25] was 26% and the “drug-related material recovered in urine” value [9, 25] was 59%. The “drug-related material recovered in urine and feces” value [9, 25] was “approximately 85%”, the “bound to plasma protein” value [10] was “Approximately 99%” and the unbound drug [10] was 1%. For the same compound, the “hepatic clearance, contribution to CL/F” value [11] was 99%, the “renal clearance of parent drug, contribution to CL/F” value [11] was < 1% and the “plasma protein binding, renally compromised vs healthy controls” value [12] was “no difference”. For the same compound, the “C max lower than healthy controls” value ([12]; end-stage renal disease, single dose 10 mg (Fig. 2)) was 27%, the “predicted exposure, difference from healthy control group” value ([12]; linear regression on creatinine clearance) was ≤ 30% and the “AUC(0–t) higher than healthy controls” value ([12]; mild renal impairment, single dose 10 mg) was 9%. For the same compound, the “C max difference from healthy controls” value ([12]; mild, moderate, or severe renal impairment, single dose 10 mg) was ≤ 11%, the “AUC(0–t) higher than healthy controls” value ([12]; moderate renal impairment, single dose 10 mg) was 16% and the “AUC(0–t) higher than healthy controls” value ([12]; severe renal impairment, single dose 10 mg) was 11%. The “AUC(0–24) increase of vortioxetine” value [13, 26] was 2.3 fold, the “C max increase of vortioxetine” value [13, 26] was 2.1 fold and the “AUC(0–t) and C max of vortioxetine with a Pgp inhibitor” value ([13]; co-administered with ketoconazole) was “marginally increased”. For the same compound, the “effect on exposure to vortioxetine” value ([13]; co-administration of aspirin) was “no effect”, the “effect on exposure to vortioxetine” value ([13]; co-administration of ethanol) was “no effect” and the “effect on exposure to vortioxetine” value ([13]; co-administration of omeprazole) was “no effect”. For the same compound, the “AUC(0–t) increase of vortioxetine” value [13, 27] was 46%, the “C max increase of vortioxetine” value [13, 27] was 15% and the “AUC(0–t) increase of vortioxetine” value [13, 28] was 30%. The “C max increase of vortioxetine” value [13, 28] was 26%, the “AUC(0–t) decrease of vortioxetine” value [13, 29] was 72% and the “C max decrease of vortioxetine” value [13, 29] was 51%. The “I/half maximal inhibitory concentration (Pgp efflux)” value [14] was “smaller than 0.1”, the “Pgp substrate in vitro” value ([14]; in vitro) was “poor substrate” and the “inhibition of Pgp transport in vitro” value ([14]; in vitro) was “weak inhibitor”. The SERT occupancy ([15]; 5-mg dose) was “approximately 50%”, the SERT occupancy ([15]; 10-mg dose) was ~65% and the SERT occupancy ([15]; 20-mg dose) was “above 80%”. The “effect on cardiac repolarization” value [16] was “unlikely to affect cardiac repolarization”, the “impairment of driving, cognitive function, or psychomotor skills” value [17] was “not to impair” and the “action at 5-HT1A receptor” value [18] was “agonist”. For the same compound, the “action at 5-HT3 receptor” value [19] was “antagonist”, the “action at 5-HT7 receptor” value [20] was “antagonist” and the “action at 5-HT1B receptor” value [21] was “partial agonist”. For the same compound, the “action at 5-HT transporter (SERT)” value [22] was “inhibitor”.
